# Biological target: ObgE (Escherichia coli, UniProt P42641)
# Assay: inhibition of single-turnover GTP hydrolysis, TLC of gamma-32P-GTP
# Type: biochemical
# Chain of ObgE (P42641 whole entry): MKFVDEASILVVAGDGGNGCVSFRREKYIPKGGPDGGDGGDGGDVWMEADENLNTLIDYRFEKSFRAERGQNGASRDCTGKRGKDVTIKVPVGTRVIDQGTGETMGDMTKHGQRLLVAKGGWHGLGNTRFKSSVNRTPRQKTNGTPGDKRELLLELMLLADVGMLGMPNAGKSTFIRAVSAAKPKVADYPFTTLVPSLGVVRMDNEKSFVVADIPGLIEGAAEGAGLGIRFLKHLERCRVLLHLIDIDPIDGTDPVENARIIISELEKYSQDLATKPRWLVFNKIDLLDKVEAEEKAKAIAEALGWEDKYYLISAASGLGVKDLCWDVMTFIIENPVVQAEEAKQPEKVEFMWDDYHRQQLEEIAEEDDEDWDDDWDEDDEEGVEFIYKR
compound,measurement,value
Nc1nc2c(ncn2[C@@H]2O[C@H](COP(=O)(O)OP(=O)(O)O)[C@@H](O)[C@H]2O)c(=O)[nH]1 [GDP],Ki,1600 ± 400 nM
